Consider 30 compounds from US10358446B2, “Bruton's tyrosine kinase inhibitors” (Zibo Biopolar Changsheng Pharmaceutical Co. Ltd., priority 2015, dated 2019).

Each structure is given as a SMILES string.

BTK, sequence (Q06187 whole entry, species assumed): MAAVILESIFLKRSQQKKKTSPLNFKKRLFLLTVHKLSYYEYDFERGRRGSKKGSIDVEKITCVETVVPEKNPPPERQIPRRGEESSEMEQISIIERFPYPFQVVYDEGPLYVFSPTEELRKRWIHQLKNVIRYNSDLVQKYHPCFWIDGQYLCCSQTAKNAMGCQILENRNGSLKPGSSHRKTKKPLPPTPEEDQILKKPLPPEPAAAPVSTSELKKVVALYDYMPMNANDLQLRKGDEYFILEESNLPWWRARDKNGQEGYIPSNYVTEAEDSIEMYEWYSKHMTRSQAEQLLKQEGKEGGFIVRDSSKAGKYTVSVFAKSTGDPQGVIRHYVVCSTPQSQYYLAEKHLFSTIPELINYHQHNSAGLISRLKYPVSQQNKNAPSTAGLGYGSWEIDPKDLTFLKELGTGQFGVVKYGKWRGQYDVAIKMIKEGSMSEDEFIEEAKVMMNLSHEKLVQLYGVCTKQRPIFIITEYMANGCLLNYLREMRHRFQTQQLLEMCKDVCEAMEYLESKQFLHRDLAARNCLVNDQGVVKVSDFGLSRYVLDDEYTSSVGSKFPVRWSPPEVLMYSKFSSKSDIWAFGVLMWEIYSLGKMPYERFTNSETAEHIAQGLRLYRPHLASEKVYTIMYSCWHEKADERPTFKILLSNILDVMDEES

This assay has as its target BTK (Homo sapiens (Human), UniProt Q06187). In words: Btk kinase assay (HTRF). In kind it is biochemical. The conditions noted are these: [ATP]=80 μM, BTK=3.4 nM; read-out: BTK Inhibition. The procedure:
Btk kinase activity was determined using a homogenous time resolved fluorescence (HTRF) methodology. Measurements were performed in a reaction volume of 15 μL using 384-well assay plates. Kinase enzyme, inhibitor, ATP and 1 μM peptide substrate were incubated in a reaction buffer compose of Hepes 50 mM (pH7.0), NaN3 0.02%, BSA 0.01%, Orthocanadate 0.1 mM. After one hour, the kinase reaction was quenched by the addition of […] antibody and XL-665 in 1× Detection buffer containing 60 mM EDTA (Cisbio), and the mixture was allowed to incubate for one hour. The HTRF signal was measured on a multimode plate reader (EnVision® Multilabel Reader, Perkin Elmer) with an excitation wavelength (λEx) of 330 nm and detection wavelengths (λEm) of 615 and 665 nrm. Activity was determined by the ratio of the fluorescence at 665 nm to that at 615 nm. For each compound, enzyme activity as measured at various concentrations of compound, Negative control reactions were performed in the absence of inhibitor in two replicates and eight no enzyme controls were used to determine baseline fluorescence levels. IC50s were obtained according to the equation: […] For BTK assay, [ATP]=80 μM, BTK=3.4 nM.
A general note: Time-resolved FRET reads energy transfer from a long-lived donor to a nearby acceptor.
For `C=CC(=O)Nc1cccc(-n2c(=O)n(-c3ccc(OCc4ccccc4)c(Cl)c3)c3cnccc32)c1` [Example 224, N-(3-(3-(4-(benzyloxy)-3-chlorophenyl)-2-oxo-2,3-dihydro-1H-imidazo[4,5-c]pyridin-1-yl)phenyl)acrylamide], the IC50 was 100 to 1000 nM.
Turning to `C=CC(=O)N1CCC[C@@H](n2c(=O)n(-c3ccc(Oc4cccc(OC(C)C)c4)cc3)c3cnccc32)C1` [Example 14, (R)-1-(1-acryloylpiperidin-3-yl)-3-(4-(3-isopropoxyphenoxy)phenyl)-1H-imidazo[4,5-c]pyridin-2(3H)-one], the IC50 is 10 to 100 nM.
Next, `O=C(O)C1CCCC(n2c(=O)n(-c3ccc(Oc4ccccc4)cc3)c3cnccc32)C1` (stereo not drawn) [Example 193, 3-(2-oxo-3-(4-phenoxyphenyl)-2,3-dihydro-1H-imidazo[4,5-c]pyridin-1-yl)cyclohexanecarboxylic acid]: 1000 to 10000 nM; `C=CC(=O)N1CC[C@@H](n2c(=O)n(-c3ccc(OCc4ccc(Cl)cc4F)cc3)c3cnccc32)C1` [Example 244, (R)-1-(1-acryloylpyrrolidin-3-yl)-3-(4-((4-chloro-2-fluorobenzyl)oxy)phenyl)-1H-imidazo[4,5-c]pyridin-2(3H)-one]: 100 to 1000 nM; `C=CC(=O)Nc1cccc(-n2c(=O)n(-c3ccc(Oc4cccc(OC)c4)cc3)c3cnccc32)c1` [Example 158, N-(3-(3-(4-(3-methoxyphenoxy)phenyl)-2-oxo-2,3-dihydro-1H-imidazo[4,5-c]pyridin-1-yl)phenyl) acrylamide]: 10 to 100 nM.
Turning to `C=CC(=O)Nc1cccc(-n2c(=O)n(-c3ccc(Oc4ccccc4)cc3)c3cccnc32)c1` [Example 116, N-(3-(2-oxo-1-(4-phenoxyphenyl)-1H-imidazo[4,5-b]pyridin-3(2H)-yl)phenyl)acrylamide], the IC50 was in the range of 100 to 1000 nM.
Take `C=CC(=O)Nc1cccc(-n2c(=O)n(-c3ccc(C(=O)Nc4ccccc4)cc3)c3cnccc32)c1` [Example 254, 4-(1-(3-acrylamidophenyl)-2-oxo-1H-imidazo[4,5-c]pyridin-3(2H)-yl)-N-phenylbenzamide]: the IC50 is 1000 to 10000 nM.
Next, `C=CC(=O)Nc1cccc(-n2c(=O)n(-c3ccc(OCc4cccc(C(F)(F)F)c4)cc3)c3cnccc32)c1` [Example 240, N-(3-(2-oxo-3-(4-((3-(trifluoromethyl)benzyl)oxy)phenyl)-2,3-dihydro-1H-imidazo[4,5-c]pyridin-1-yl)phenyl)acrylamide]: 10 to 100 nM.
As for `C=C(C)C(=O)Nc1cccc(-n2c(=O)n(-c3ccc(Oc4ccccc4)cc3)c3cnccc32)c1` [Example 110, N-(3-(2-oxo-3-(4-phenoxyphenyl)-2,3-dihydro-1H-imidazo[4,5-c]pyridin-1-yl)phenyl)methacrylamide], the IC50 was 100 to 1000 nM.
With `CC#CC(=O)N1CC[C@@H](n2c(=O)n(-c3ccc(Oc4ccccc4)cc3)c3cnccc32)C1` [Example 34, (R)-1-(1-(but-2-ynoyl)pyrrolidin-3-yl)-3-(4-phenoxyphenyl)-1H-imidazo [4,5-c]pyridin-2(3H)-one], the IC50 was no less than 10000 nM.
On to `C=CC(=O)N1CC[C@@H](n2c(=O)n(-c3ccc(OCc4ccc(Cl)c(Cl)c4)cc3)c3cnccc32)C1` [Example 198, (R)-1-(1-acryloylpyrrolidin-3-yl)-3-(4-((3,4-dichlorobenzyl)oxy)phenyl)-1H-imidazo[4,5-c]pyridin-2(3H)-one], for which the IC50 is 100 to 1000 nM.
As to `C=CC(=O)Nc1cccc(-n2c(=O)n(-c3ccc(Oc4ccc(OC)cc4)cc3)c3cnccc32)c1` [Example 80, N-(3-(3-(4-(4-methoxyphenoxy)phenyl)-2-oxo-2,3-dihydro-1H-imidazo[4,5-c]pyridin-1-yl)phenyl)acrylamide], the IC50 was 100 to 1000 nM.
As for `C=CC(=O)Nc1cccc(-n2c(=O)n(-c3ccc(Oc4ccc(OC)c(OC)c4)cc3)c3cnccc32)c1` [Example 131, N-(3-(3-(4-(3,4-dimethoxyphenoxy)phenyl)-2-oxo-2,3-dihydro-1H-imidazo[4,5-c]pyridin-1-yl)phenyl)acrylamide], the IC50 lay within 10 to 100 nM.
Take `C=CC(=O)Nc1cccc(-n2c(=O)n(-c3ccc(NC(=O)c4cccc(F)c4)cc3)c3cnccc32)c1` [Example 265, N-(4-(1-(3-acrylamidophenyl)-2-oxo-1H-imidazo[4,5-c]pyridin-3(2H)-yl)phenyl)-3-fluorobenzamide]: the IC50 lay in the range of 100 to 1000 nM.
Take `CC#CC(=O)N1CCC[C@@H](n2c(=O)n(-c3ccc(Oc4cccc(OC)c4F)cc3)c3cncc(C)c32)C1` [Example 171, (R)-1-(1-(but-2-ynoyl)piperidin-3-yl)-3-(4-(2-fluoro-3-methoxyphenoxy)phenyl)-7-methyl-1H-imidazo[4,5-c]pyridin-2(3H)-one]: the IC50 lay within 100 to 1000 nM.
`C=CC(=O)Nc1cccc(-n2c(=O)n(-c3ccc(Oc4ccc(C#N)cc4)cc3)c3cnccc32)c1` [Example 162, N-(3-(3-(4-(4-cyanophenoxy)phenyl)-2-oxo-2,3-dihydro-1H-imidazo[4,5-c]pyridin-1-yl)phenyl)acrylamide]: the IC50 fell in the range of 100 to 1000 nM.
The value for `C=CC(=O)N1CC[C@@H](n2c(=O)n(-c3cccc(-c4ccccc4C)c3)c3cnccc32)C1` [Example 273, (R)-1-(1-acryloylpyrrolidin-3-yl)-3-(2′-methyl-[1,1′-biphenyl]-3-yl)-1H-imidazo[4,5-c]pyridin-2(3H)-one] was 100 to 1000 nM.
As for `C=CC(=O)Nc1cccc(-n2c(=O)n(-c3ccc(OCc4cccc(Cl)c4)cc3)c3cnccc32)c1` [Example 230, N-(3-(3-(4-((3-chlorobenzyl)oxy)phenyl)-2-oxo-2,3-dihydro-1H-imidazo[4,5-c]pyridin-1-yl)phenyl)acrylamide], the IC50 was 10 to 100 nM.
With `C=CC(=O)N1CC[C@@H](n2c(=O)n(-c3ccc(OCc4cc(F)ccc4F)cc3)c3cnccc32)C1` [Example 209, (R)-1-(1-acryloylpyrrolidin-3-yl)-3-(4-((2,5-difluorobenzyl)oxy)phenyl)-1H-imidazo[4,5-c]pyridin-2(3H)-one], the IC50 fell in the range of 100 to 1000 nM.
`C=CC(=O)N1CC[C@@H](n2c(=O)n(-c3ccc(Oc4ccc(Cl)c(Cl)c4)cc3)c3cnccc32)C1` [Example 37, (R)-1-(1-acryloylpyrrolidin-3-yl)-3-(4-(3,4-dichlorophenoxy)phenyl)-1H-imidazo[4,5-c]pyridin-2(3H)-one]: the IC50 lay within 100 to 1000 nM.
For `C=CC(=O)Nc1cccc(-n2c(=O)n(-c3ccc(OCc4cccc(C(F)(F)F)c4)c(Cl)c3)c3cnccc32)c1` [Example 243, N-(3-(3-(3-chloro-4-((3-(trifluoromethyl)benzyl)oxy)phenyl)-2-oxo-2,3-dihydro-1H-imidazo[4,5-c]pyridin-1-yl)phenyl)acrylamide], the IC50 is 100 to 1000 nM.
As for `C=CC(=O)N1CC[C@@H](n2c(=O)n(-c3ccc(Oc4ccccc4)cc3)c3c(OC)nccc32)C1` [Example 182, (R)-1-(1-acryloylpyrrolidin-3-yl)-4-methoxy-3-(4-phenoxyphenyl)-1H-imidazo[4,5-c]pyridin-2(3H)-one], the IC50 is no less than 10000 nM.
Next, `C=CC(=O)Nc1cccc(-n2c(=O)n(-c3ccc(-c4ccc(C)cc4)cc3)c3cnccc32)c1` [Example 276, N-(3-(3-(4′-methyl-[1,1′-biphenyl]-4-yl)-2-oxo-2,3-dihydro-1H-imidazo[4,5-c]pyridin-1-yl)phenyl)acrylamide]: 1000 to 10000 nM; `C=CC(=O)N1CCCC1Cn1c(=O)n(-c2ccc(Oc3ccccc3)cc2)c2cnccc21` (stereo not drawn) [Example 178, 1-(1-Acryloyl-pyrrolidin-2-ylmethyl)-3-(4-phenoxy-phenyl)-1,3-dihydro-imidazo [4,5-c]pyridin-2-one]: 10 to 100 nM; `C=CC(=O)N1CCC[C@@H](n2c(=O)n(-c3ccc(Oc4cccc(C)c4OC)cc3)c3cnccc32)C1` [Example 66, (R)-1-(1-acryloylpiperidin-3-yl)-3-(4-(2-methoxy-3-methylphenoxy)phenyl)-1H-imidazo[4,5-c] pyridin-2(3H)-one]: 10 to 100 nM.
With `C=CC(=O)N1CC[C@@H](n2c(=O)n(-c3ccc(OCc4ccccn4)cc3)c3cnccc32)C1` [Example 213, (R)-1-(1-acryloylpyrrolidin-3-yl)-3-(4-(pyridin-2-ylmethoxy)phenyl)-1H-imidazo[4,5-c]pyridin-2(3H)-one], the IC50 lay within 1000 to 10000 nM.
Turning to `C=CC(=O)N1CC[C@@H](n2c(=O)n(-c3ccc(Oc4cccc(F)c4)c(F)c3)c3cnccc32)C1` [Example 77, (R)-1-(1-acryloylpyrrolidin-3-yl)-3-(3-fluoro-4-(3-fluorophenoxy)phenyl)-1H-imidazo[4,5-c]pyridin-2(3H)-one], the IC50 lay in the range of 10 to 100 nM.
`C=CC(=O)Nc1cccc(-n2c(=O)n(-c3ccc(Oc4cccc(OC(C)C)c4)c(Cl)c3)c3cnccc32)c1` [Example 145, N-(3-(3-(3-chloro-4-(3-isopropoxyphenoxy)phenyl)-2-oxo-2,3-dihydro-1H-imidazo[4,5-c]pyridin-1-yl)phenyl)acrylamide]: the IC50 is 100 to 1000 nM.
For `C=CC(=O)Nc1cccc(-n2c(=O)n(-c3ccc(Oc4ccc(OC)c(C)c4)cc3)c3cnccc32)c1` [Example 163, N-(3-(3-(4-(4-methoxy-3-methylphenoxy)phenyl)-2-oxo-2,3-dihydro-1H-imidazo[4,5-c]pyridin-1-yl)phenyl)acrylamide], the IC50 lay within 100 to 1000 nM.
Regarding `C=CC(=O)N1CC[C@@H](n2c(=O)n(-c3ccc(-c4ccc(OC)cc4F)cc3)c3cnccc32)C1` [Example 274], the IC50 was 100 to 1000 nM.
